In brackets after ≈: the same amount, converted by molar mass.
Tests used:
Format in all cases: cell-based
CACO-2 = assay: Sulforhodamine B (SRB) assay, CACO-2; details: Colon, CACO-2, 48 hours
Procedure: (§1) Growth inhibitory effect of Compound A on the cells listed below was measured by the sulforhodamine B assay. SW480 cells in 100 μl media were plated in each well of 96-well plate and allowed to attach for 24 hours. Compound A was added to the wells to produce the desired final concentrations, and the plates were incubated at 37° C. for 48 hours. The cells were then fixed by gentle addition of 100 μl of cold (4° C.) 10% trichloroacetic acid to each well, followed by incubation at 4° C. for 1 hour. Plates were washed with deionized water five times and allowed to air dry. The cells were then stained by addition of 100 μl SRB solution (0.4% SRB(w/v) in 1% acetic acid (v/v)) to wells for 15 min. After staining, the plates were quickly washed five times with 1% acetic acid to remove any unbound dye, and allowed to air dry. Bound dye was solubilized with 10 mmol/L Tris base (pH 10.5) prior to reading the plates. The optical density (OD) was read on a plate reader at a wavelength of 515 nm with Molecular Device. Inhibition of growth was expressed as relative viability (% of control) and GI50 was calculated from concentration-response curves after log/probit transformation.
(§2) The values in Table 6 are in μg/ml.

HT29 = assay: Sulforhodamine B (SRB) assay, HT29; details: Colon, HT29, 48 hours
Procedure: as §1, §2

LOX-IMVI = assay: Sulforhodamine B (SRB) assay, LOX-IMVI; details: Melanoma, 48 hours
Procedure: as §1, §2

M14 = assay: Sulforhodamine B (SRB) assay, M14; details: Melanoma, M14, 48 hours
Procedure: as §1, §2

SW620 = assay: Sulforhodamine B (SRB) assay, SW620; details: Colon, SW620, 48 hours
Procedure: as §1, §2

A549 = assay: Sulforhodamine B (SRB) assay, A549; details: Lung, A549, 48 hours
Procedure: as §1, §2

PC3 = assay: Sulforhodamine B (SRB) assay, PC3; details: Prostate, PC3, 48 hours
Procedure: as §1, §2

SW480-CWP = assay: Sulforhodamine B (SRB) assay, SW480-CWP; details: Colon, 48 hours
Procedure: as §1, §2

SK-MEL-28 = assay: Sulforhodamine B (SRB) assay, SK-MEL-28; details: Melanoma, SK-MEL-28, 48 hours
Procedure: as §1, §2

HT1080 = assay: Sulforhodamine B (SRB) assay, HT1080; details: Prostate, HT1080, 48 hours
Procedure: as §1, §2

DLD-1 = assay: Sulforhodamine B (SRB) assay, DLD-1; details: Colon, DLD-1, 48 hours
Procedure: as §1, §2

A431 = assay: Sulforhodamine B (SRB) assay, A431; details: Melanoma, A431, 48 hours
Procedure: as §1, §2

786-0 = assay: Sulforhodamine B (SRB) assay, 786-0; details: Renal, 786-0, 48 hours
Procedure: as §1, §2

HL60 = assay: Sulforhodamine B (SRB) assay, HL60; details: Leukemia, HL60, 48 hours
Procedure: as §1, §2

CAKI-1 = assay: Sulforhodamine B (SRB) assay, CAKI-1; details: Renal, CAKI-1, 48 hours
Procedure: as §1, §2

G361 = assay: Sulforhodamine B (SRB) assay, G361; details: Melanoma, G361, 48 hours
Procedure: as §1, §2

K562/ADR = assay: Sulforhodamine B (SRB) assay, K562/ADR; details: Leukemia, 48 hours
Procedure: as §1, §2

MCF7 = assay: Sulforhodamine B (SRB) assay, MCF7; details: Breast, MCF7, 48 hours
Procedure: as §1, §2

K562/VIN = assay: Sulforhodamine B (SRB) assay, K562/VIN; details: Leukemia, 48 hours
Procedure: as §1, §2

SW480-Kribb = assay: Sulforhodamine B (SRB) assay, SW480-Kribb; details: Colon, 48 hours
Procedure: as §1, §2

A375 = assay: Sulforhodamine B (SRB) assay, A375; details: Melanoma, A375, 48 hours
Procedure: as §1, §2

HCC2998 = assay: Sulforhodamine B (SRB) assay, HCC2998; details: Colon, HCC2998, 48 hours
Procedure: as §1, §2

K562 = assay: Sulforhodamine B (SRB) assay, K562; details: Leukemia, K562, 48 hours
Procedure: as §1, §2

HCT15 = assay: Sulforhodamine B (SRB) assay, HCT15; details: Colon, HCT15, 48 hours
Procedure: as §1, §2

LOVO = assay: Sulforhodamine B (SRB) assay, LOVO; details: Colon, 48 hours
Procedure: as §1, §2

NCI H23 = assay: Sulforhodamine B (SRB) assay, NCI H23; details: Lung, NCI H23, 48 hours
Procedure: as §1, §2

COLO205 = assay: Sulforhodamine B (SRB) assay, COLO205; details: Colon, COLO205, 48 hours
Procedure: as §1, §2

KM12 = assay: Sulforhodamine B (SRB) assay, KM12; details: Colon, KM12, 48 hours
Procedure: as §1, §2

UACC62 = assay: Sulforhodamine B (SRB) assay, UACC62; details: Melanoma, UACC62, 48 hours
Procedure: as §1, §2

293 = assay: Sulforhodamine B (SRB) assay, 293; details: Renal, 293, 48 hours
Procedure: as §1, §2

CRL1579 = assay: Sulforhodamine B (SRB) assay, CRL1579; details: Melanoma, CRL1579, 48 hours
Procedure: as §1, §2

RPMI7951 = assay: Sulforhodamine B (SRB) assay, RPMI7951; details: Melanoma, RPMI7951, 48 hours
Procedure: as §1, §2

T84 = assay: Sulforhodamine B (SRB) assay, T84; details: Colon, T84, 48 hours
Procedure: as §1, §2

SK-MEL-5 = assay: Sulforhodamine B (SRB) assay, SK-MEL-5; details: Melanoma, SK-MEL-5, 48 hours
Procedure: as §1, §2

A253 = assay: Sulforhodamine B (SRB) assay, A253; details: Melanoma, A253, 48 hours
Procedure: as §1, §2

HMV-I = assay: Sulforhodamine B (SRB) assay, HMV-I; details: Melanoma, 48 hours
Procedure: as §1, §2

ACHN = assay: Sulforhodamine B (SRB) assay, ACHN; details: Renal, 48 hours
Procedure: as §1, §2

HCT116 = assay: Sulforhodamine B (SRB) assay, HCT116; details: Colon, HCT116, 48 hours
Procedure: as §1, §2

MCF7/ADR = assay: Sulforhodamine B (SRB) assay, MCF7/ADR; details: Breast, 48 hours
Procedure: as §1, §2

NCI H460 = assay: Sulforhodamine B (SRB) assay, NCI H460; details: Lung, NCI H460, 48 hours
Procedure: as §1, §2

TCF4 = assay: Effects of compounds on TCF4 expression (Table 9)
Text: (§3) The effects of various compounds having general formula (I) on surviving and TCF4 expression were characterized.

survivin = assay: Effects of compounds on survivin expression (Table 9); details: for inhibition at 25 µM: Table 9, 25 uM; for inhibition at 5 µM: read-out: Survivin % inhibition 5 uM, Table 9, 5 uM
Text: A plasmid containing luciferase under the control of surviving promoter was constructed and transfected into wild type, CBP+/−, or p300+/−3T3 cells.
as §3

surviving protein = assay: Western blot analysis of survivin protein; details: 5 μM
RPMI8226 = assay: Sulforhodamine B (SRB) assay, RPMI8226; details: Leukemia, RPMI8226, 48 hours
Procedure: as §1, §2

cultured tumor cells [1] = assay: FACS analysis of cells in G0, cultured tumor cells; details: 0.5 μM
cultured tumor cells [2] = assay: Cell death of cultured tumor cells; details: 0.5 μM
caspase 2 = assay: Caspase 2 activity in cultured tumor cells; details: 0.5 μM
caspase 3 = assay: Caspase 3 activity in cultured tumor cells; details: 0.5 μM

Molecule	GI50 (SRB assay) (HT29) [µg/mL]	GI50 (SRB assay) (LOX-IMVI) [µg/mL]	GI50 (SRB assay) (SW620) [µg/mL]	GI50 (SRB assay) (A549) [µg/mL]	GI50 (SRB assay) (PC3) [µg/mL]	GI50 (SRB assay) (SK-MEL-28) [µg/mL]	GI50 (SRB assay) (HT1080) [µg/mL]	GI50 (SRB assay) (DLD-1) [µg/mL]	GI50 (SRB assay) (HL60) [µg/mL]	GI50 (SRB assay) (CAKI-1) [µg/mL]	GI50 (SRB assay) (K562/ADR) [µg/mL]	GI50 (SRB assay) (MCF7) [µg/mL]	GI50 (SRB assay) (K562/VIN) [µg/mL]	GI50 (SRB assay) (SW480-Kribb) [µg/mL]	GI50 (SRB assay) (A375) [µg/mL]	GI50 (SRB assay) (HCC2998) [µg/mL]	GI50 (SRB assay) (K562) [µg/mL]	GI50 (SRB assay) (HCT15) [µg/mL]	GI50 (SRB assay) (LOVO) [µg/mL]	GI50 (SRB assay) (COLO205) [µg/mL]	also measured
2-Methyl-5-(p-hydroxyphenylmethyl)-7-naphthylmethyl-3,6-dioxo-hexahydro-[1,2,4]triazolo[4,5-a]pyrazine-1-carboxylic acid benzylamide [Example 4]	1.694	1.526	1.426	1.386	1.207	1.291	1.469	1.775	1.243	0.467	7.682	7.355	1.640	1.137	1.391	1.047	1.247	2.042	0.532	1.136	GI50 (SRB assay) (CACO-2): 1.201 µg/mL; GI50 (SRB assay) (M14): 2.289 µg/mL; GI50 (SRB assay) (SW480-CWP): 0.980 µg/mL; GI50 (SRB assay) (A431): 1.083 µg/mL; GI50 (SRB assay) (786-0): 1.417 µg/mL; GI50 (SRB assay) (G361): 0.584 µg/mL; GI50 (SRB assay) (NCI H23): 1.296 µg/mL; GI50 (SRB assay) (KM12): 1.451 µg/mL; GI50 (SRB assay) (UACC62): 0.563 µg/mL; GI50 (SRB assay) 293: 0.731 µg/mL; GI50 (SRB assay) (CRL1579): 1.830 µg/mL; GI50 (SRB assay) (RPMI7951): 0.936 µg/mL; GI50 (SRB assay) (T84): 1.134 µg/mL; GI50 (SRB assay) (SK-MEL-5): 0.888 µg/mL; GI50 (SRB assay) (A253): 1.398 µg/mL; GI50 (SRB assay) (HMV-I): 1.153 µg/mL; GI50 (SRB assay) (ACHN): 1.263 µg/mL; GI50 (SRB assay) (HCT116): 0.96 µg/mL; GI50 (SRB assay) (MCF7/ADR): 9.487 µg/mL; GI50 (SRB assay) (NCI H460): 1.498 µg/mL
CN1CC(=O)N2[C@@H](CN(Cc3cccc4ccccc34)C(=O)[C@@H]2Cc2ccc(O)cc2)N1C(=O)NCc1ccccc1																					IC50 (TCF4): ~2 µM; inhibition at 25 µM (survivin): 99%; inhibition at 5 µM (survivin): 100%
O=c1[nH]cc(F)c(=O)[nH]1 [Compound 5-FU, 5-fluorouracil, reference compound]																					amount of survivin protein (Western blot) (surviving protein): reduced the amount of the surviving protein; GI50 (293; Homo sapiens, HEK293): 2.02 µg/mL (≈ 15.5 µM)
N.N.[Cl][Pt][Cl] [Cisplatin, cisplatin, reference compound]	>10	>10	>10	>10	>10	>10	>10	>10	>10	>10	>10	>10	>10	>10	>10	>10	>10	>10	>10	>10	GI50 (SRB assay) (KM12): >10 µg/mL; GI50 (SRB assay) (UACC62): >10 µg/mL; GI50 (SRB assay) (T84): >10 µg/mL; GI50 (SRB assay) (SK-MEL-5): >10 µg/mL; GI50 (SRB assay) (HCT116): >10 µg/mL; GI50 (SRB assay) (RPMI8226): >10 µg/mL; GI50 (SRB assay) (NCI H460): >10 µg/mL
CN[C@@H]1C[C@H]2O[C@@](C)([C@@H]1OC)n1c3ccccc3c3c4c(c5c6ccccc6n2c5c31)C(=O)NC4 [stausporine, staurosporine, reference compound]																					number of cells in G0 (FACS) (cultured tumor cells [1]): increase the number of cells in G0; cell death (cultured tumor cells [2]): promote cell death; caspase 2 activity (caspase 2): increased both the caspase 2 and caspase 3 activities; caspase 3 activity (caspase 3): increased both the caspase 2 and caspase 3 activities
CN1CC(=O)N2[C@@H](CN(Cc3c(Cl)cc(Cl)c4cccnc34)C(=O)[C@@H]2Cc2ccc(O)cc2)N1C(=O)NCc1ccccc1																					IC50 (TCF4): 11.2 ± 1.5 µM; inhibition at 25 µM (survivin): 58%; inhibition at 5 µM (survivin): 6%
